For 18 compounds, IC50 results are on record in US20240067662A1, “KRAS INHIBITORS” (Bristol-Myers Squibb Company, priority 2022, published 2024).

As a reminder, the IC50 is the concentration needed to halve the response being measured.

The target in the experiment is GMPPNP-loaded KRAS G12C (Homo sapiens, UniProt P01116, G12C). The experiment can be described thus: KRAS G12C RAF Disruption Assay (HTRF). It is filed as biochemical. As to conditions: recombinant GMPPNP-loaded KRAS G12C (5 nM), 20 min with compound; GST-RAF1 RBD (9 nM); HTRF signal; read-out: KRASG12C RAF Disruption Assay (IC50). In outline:
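The read-out is an HTRF 520/495 emission ratio, with IC50 taken from dose-response curves. Compound was first incubated for 20 min at room temperature with active-state KRAS G12C (GMPPNP, 5 nM) in Tris pH 7.5/NaCl/MgCl2/DTT/BSA. RAF1 RBD-GST (9 nM, 20 min) and SA-Tb (0.25 nM, 3 h) were added in turn.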
In general terms: In TR-FRET formats the signal depends on donor and acceptor labels being close together.

Sequence of GMPPNP-loaded KRAS G12C (P01116 1-188 isoform P01116-2 G12C): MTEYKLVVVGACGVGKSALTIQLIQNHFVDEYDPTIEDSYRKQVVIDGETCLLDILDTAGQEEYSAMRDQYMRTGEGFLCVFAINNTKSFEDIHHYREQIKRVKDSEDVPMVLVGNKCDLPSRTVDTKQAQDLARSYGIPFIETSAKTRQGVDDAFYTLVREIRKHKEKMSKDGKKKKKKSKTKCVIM

Take `C#Cc1cccc2cccc(-c3ncc4c(N(C)C5CCN(C(=O)/C(F)=C/c6ccccn6)C5C)nc(OC[C@@]56CCCN5C[C@H](F)C6)nc4c3F)c12` (single isomer, unassigned) [Example 74 cis isomer 2]: the IC50 was 910 nM. With `C#Cc1cccc2cccc(-c3ncc4c(N5CCN(C(=O)/C(F)=C/c6nccs6)C[C@@H]5C)nc(OC[C@@]56CCCN5C[C@H](F)C6)nc4c3F)c12` [Example 62, (Z)-1-((S)-4-(7-(8-ethynylnaphthalen-1-yl)-8-fluoro-2-(((2R, 7aS)-2-fluorotetrahydro-1H-pyrrolizin-7a(5H)-yl)methoxy)pyrido[4,3-d]pyrimidin-4-yl)-3-methylpiperazin-1-yl)-2-fluoro-3-(thiazol-2-yl)prop-2-en-1-one], the IC50 amounted to 300 nM. In the case of `C#Cc1c(F)ccc2cc(O)cc(-c3ncc4c(N5C[C@H]6CC[C@@H](C5)N6C(=O)/C(F)=C/c5ccncn5)nc(OC[C@@]56CCCN5C[C@H](F)C6)nc4c3F)c12` [Compound 18, (Z)-1-((1R, 5S)-3-(7-(8-ethynyl-7-fluoro-3-hydroxynaphthalen-1-yl)-8-fluoro-2-(((2R, 7aS)-2-fluorotetrahydro-1H-pyrrolizin-7a(5H)-yl)methoxy)pyrido[4,3-d]pyrimidin-4-yl)-3,8-diazabicyclo[3.2.1]octan-8-yl)-2-fluoro-3-(pyrimidin-4-yl)prop-2-en-1-one] it was 25 nM; in that of `C#Cc1c(F)ccc2cc(O)cc(-c3ncc4c(N5C[C@H]6CC[C@@H](C5)N6C(=O)/C(F)=C/c5cccc(OC)n5)nc(OC[C@@]56CCCN5C[C@H](F)C6)nc4c3F)c12` [Compound 17, (Z)-1-((1R, 5S)-3-(7-(8-ethynyl-7-fluoro-3-hydroxynaphthalen-1-yl)-8-fluoro-2-(((2R, 7aS)-2-fluorotetrahydro-1H-pyrrolizin-7a(5H)-yl)methoxy)pyrido[4,3-d]pyrimidin-4-yl)-3,8-diazabicyclo[3.2.1]octan-8-yl)-2-fluoro-3-(6-methoxypyridin-2-yl)prop-2-en-1-one], 2600 nM; in that of `C#Cc1ccc(F)c2cccc(-c3ncc4c(N5CCN(C(=O)/C(F)=C/c6ccccn6)CC5)nc(OC[C@@]56CCCN5C[C@H](F)C6)nc4c3F)c12` [Compound 96, (Z)-1-(4-(7-(8-ethynyl-5-fluoronaphthalen-1-yl)-8-fluoro-2-(((2R, 7aS)-2-fluorotetrahydro-1H-pyrrolizin-7a(5H)-yl)methoxy)pyrido[4,3-d]pyrimidin-4-yl)piperazin-1-yl)-2-fluoro-3-(pyridin-2-yl)prop-2-en-1-one], 110 nM. In the case of `C#Cc1c(F)ccc2cc(O)cc(-c3ncc4c(N5CC6CCC(C5)N6C(=O)/C(Cl)=C/c5ccccn5)nc(OC[C@@]56CCCN5C[C@H](F)C6)nc4c3F)c12` [Compound 8, (Z)-1-((1R, 5S)-3-(7-(8-ethynyl-7-fluoro-3-hydroxynaphthalen-1-yl)-8-fluoro-2-(((2R, 7aS)-2-fluorotetrahydro-1H-pyrrolizin-7a(5H)-yl)methoxy)pyrido[4,3-d]pyrimidin-4-yl)-3,8-diazabicyclo[3.2.I]octan-8-yl)-2-chloro-3-(pyridin-yl)prop-2-en-1-one] it was 1300 nM. As for `N#CC[C@H]1CN(c2nc(OC[C@@]34CCCN3C[C@H](F)C4)nc3c(F)c(-c4cc(F)ccc4C(F)F)ncc23)CCN1C(=O)/C(F)=C/c1nccs1` [Example 43, 2-((S)-4-(7-(2-(difluoromethyl)-5-fluorophenyl)-8-fluoro-2-(((2R, 7aS)-2-fluorotetrahydro-1H-pyrrolizin-7a(5H)-yl)methoxy)pyrido[4,3-d]pyrimidin-4-yl)-1-((Z)-2-fluoro-3-(thiazol-2-yl)acryloyl)piperazin-2-yl)acetonitrile], the figure is 1100 nM. Turning to `C#Cc1cccc2cccc(-c3ncc4c(N5C[C@H](C)N(C(=O)/C(F)=C/c6ccccn6)C[C@H]5C)nc(OC[C@@]56CCCN5C[C@H](F)C6)nc4c3F)c12` [Compound 83, (Z)-1-((2S,5R)-4-(7-(8-ethynylnaphthalen-1-yl)-8-fluoro-2-(((2R, 7aS)-2-fluorotetrahydro-1H-pyrrolizin-7a(5H)-yl)methoxy)pyrido[4,3-d]pyrimidin-4-yl)-2,5-dimethylpiperazin-1-yl)-2-fluoro-3-(pyridin-2-yl)prop-2-en-1-one], the half-maximal inhibitory concentration (IC50) was 2600 nM. As for `C#Cc1c(F)ccc2cc(O)cc(-c3ncc4c(N5C[C@H]6CC[C@@H](C5)N6C(=O)/C(F)=C/c5cnccn5)nc(OC[C@@]56CCCN5C[C@H](F)C6)nc4c3F)c12` [Compound 16, (Z)-1-((1R, 5S)-3-(7-(8-ethynyl-7-fluoro-3-hydroxynaphthalen-1-yl)-8-fluoro-2-(((2R, 7aS)-2-fluorotetrahydro-1H-pyrrolizin-7a(5H)-yl)methoxy)pyrido[4,3-d]pyrimidin-4-yl)-3,8-diazabicyclo[3.2.1]octan-8-yl)-2-fluoro-3-(pyrazin-2-yl)prop-2-en-1-one], the figure is 180 nM; as for `CN(c1nc(OC[C@@]23CCCN2C[C@H](F)C3)nc2c(F)c(-c3cccc4cccc(C#N)c34)ncc12)[C@@H]1CCN(C(=O)/C(F)=C/c2ccccn2)C1` [Compound 113, 8-(8-fluoro-4-(((R)-1-((Z)-2-fluoro-3-(pyridin-2-yl)acryloyl)pyrrolidin-3-yl)(methyl)amino)-2-(((2R, 7aS)-2-fluorotetrahydro-1H-pyrrolizin-7a(5H)-yl)methoxy)pyrido[4,3-d]pyrimidin-7-yl)-1-naphthonitrile], 156 nM; as for `C#Cc1c(F)ccc2cc(O)cc(-c3ncc4c(N5CCN(C(=O)/C(F)=C/c6ncccn6)C[C@@H]5C)nc(OC[C@@]56CCCN5C[C@H](F)C6)nc4c3F)c12` [Example 66, (Z)-1-((S)-4-(7-(8-ethynyl-7-fluoro-3-hydroxynaphthalen-1-yl)-8-fluoro-2-(((2R, 7aS)-2-fluorotetrahydro-1H-pyrrolizin-7a(5H)-yl)methoxy)pyrido[4,3-d]pyrimidin-4-yl)-3-methylpiperazin-1-yl)-2-fluoro-3-(pyrimidin-2-yl)prop-2-en-1-one], less than 2 nM. In the case of `C#Cc1cccc2cccc(-c3ncc4c(N5C[C@H]6CN(C(=O)/C(F)=C/c7ncccn7)C[C@H]6C5)nc(OC[C@@]56CCCN5C[C@H](F)C6)nc4c3F)c12` [Compound 101, (Z)-1-((3aR, 6aS)-5-(7-(8-ethynylnaphthalen-1-yl)-8-fluoro-2-(((2R, 7aS)-2-fluorotetrahydro-1H-pyrrolizin-7a(5H)-yl)methoxy)pyrido[4,3-d]pyrimidin-4-yl)hexahydropyrrolo[3,4-c]pyrrol-2(1H)-yl)-2-fluoro-3-(pyrimidin-2-yl)prop-2-en-1-one] it was 12000 nM; in that of `CN(c1nc(OC[C@@]23CCCN2C[C@H](F)C3)nc2c(F)c(-c3c(F)cc(F)c4sc(N)nc34)ncc12)[C@@H]1CCN(C(=O)/C(F)=C/c2ccccn2)C1` [Compound 119, (Z)-1-((3R)-3-((7-(2-amino-5,7-difluorobenzo[d]thiazol-4-yl)-8-fluoro-2-(((7aS)-2-fluorotetrahydro-1H-pyrrolizin-7a(5H)-yl)methoxy)pyrido[4,3-d]pyrimidin-4-yl)(methyl)amino)pyrrolidin-1-yl)-2-fluoro-3-(pyridin-2-yl)prop-2-en-1-one], 5 nM; in that of `C#Cc1cccc2cccc(-c3ncc4c(N5CCN(C(=O)/C(F)=C/c6cccnn6)CC5)nc(OC[C@@]56CCCN5C[C@H](F)C6)nc4c3F)c12` [Compound 127, (Z)-1-(4-(7-(8-ethynylnaphthalen-1-yl)-8-fluoro-2-(((2R, 7aS)-2-fluorotetrahydro-1H-pyrrolizin-7a(5H)-yl)methoxy)pyrido[4,3-d]pyrimidin-4-yl)piperazin-1-yl)-2-fluoro-3-(pyridazin-3-yl)prop-2-en-1-one], 10 nM.

For `C#Cc1cccc2cccc(-c3nc(OC)c4c(N5CCN(C(=O)/C(F)=C/c6ccccn6)CC5)nc(OC[C@@]56CCCN5C[C@H](F)C6)nc4c3F)c12` [Compound 109, (Z)-1-(4-(7-(8-ethynylnaphthalen-1-yl)-8-fluoro-2-(((2R, 7aS)-2-fluorotetrahydro-1H-pyrrolizin-7a(5H)-yl)methoxy)-5-methoxypyrido[4,3-d]pyrimidin-4-yl)piperazin-1-yl)-2-fluoro-3-(pyridin-2-yl)prop-2-en-1-one], the IC50 was found to be 240 nM. As for `C#Cc1c(F)ccc2cc(O)cc(-c3ncc4c(N5CCN(C(=O)/C(F)=C/c6nccs6)C[C@@H]5C)nc(OC[C@@]56CCCN5C[C@H](F)C6)nc4c3F)c12` [Example 64, (Z)-1-((S)-4-(7-(8-ethynyl-7-fluoro-3-hydroxynaphthalen-1-yl)-8-fluoro-2-(((2R, 7aS)-2-fluorotetrahydro-1H-pyrrolizin-7a(5H)-yl)methoxy)pyrido[4,3-d]pyrimidin-4-yl)-3-methylpiperazin-1-yl)-2-fluoro-3-(thiazol-2-yl)prop-2-en-1-one], the figure is 7 nM; as for `C#Cc1cccc2cccc(-c3ncc4c(N(C)C5CCN(C(=O)/C(F)=C/c6nccs6)CC5)nc(OC[C@@]56CCCN5C[C@H](F)C6)nc4c3F)c12` [Compound 132, (Z)-1-(4-((7-(8-ethynylnaphthalen-1-yl)-8-fluoro-2-(((2R, 7aS)-2-fluorotetrahydro-1H-pyrrolizin-7a(5H)-yl)methoxy)pyrido[4,3-d]pyrimidin-4-yl)(methyl)amino)piperidin-1-yl)-2-fluoro-3-(thiazol-2-yl)prop-2-en-1-one], 16800 nM; as for `C#Cc1cccc2cccc(-c3ncc4c(N(C)C5CCN(C(=O)/C(F)=C/c6nccs6)C5C)nc(OC[C@@]56CCCN5C[C@H](F)C6)nc4c3F)c12` (single isomer, unassigned) [Example 73 cis isomer 2], 1800 nM.
